The conditions of data set [1]: at 20° C.; cited from earlier work.
Another data set concerns Alopecurus myosuroides. The data set is described as follows: Field trial, post-emergence herbicidal activity. It is filed as in vivo. The conditions noted are these: ALOMY, 31 DAT.
In a further data set the test system is Capsella bursa-pastoris. The data set is described as follows: Field trial, post-emergence herbicidal activity. Type of data set: in vivo. The conditions noted are these: CAPBP, 31 DAT.
For another data set, the system named is Raphanus raphanistrum. Briefly: Field trial, post-emergence herbicidal activity. Type of data set: in vivo. As to conditions: RAPRA, 31 DAT.
The next data set has as its system Triticum aestivum. Briefly: Field trial, phytotoxicity (damage) on winter wheat. The conditions noted are these: TRZAW (winter wheat, crop damage), post-emergence, 31 DAT.
In another data set the test system is Matricaria inodora. The data set is described as follows: Field trial, post-emergence herbicidal activity. Type of data set: in vivo. The conditions noted are these: MATIN, 31 DAT.
The next data set has as its system Lamium amplexicaule. Briefly: Field trial, post-emergence herbicidal activity. The conditions noted are these: LAMAM, 31 DAT. Type of data set: in vivo.

In brackets after ≈: the same amount, converted by molar mass.

Description for Alopecurus myosuroides: (§1) Winter wheat was seeded in different soils ranging from sandy loam to clay loam soil containing 2.1-5.5% of organic matter.
(§2) For the post emergence treatment, the plants were first grown up to the 2 leaf stage (BBCH 12). Here, the herbicidal compositions were suspended or emulsified in water as distribution medium and sprayed using finely distributing nozzels.
(§3) The herbicidal activity for the individual herbicidal compositions (solo and mixture applications) was assessed 31 days after treatment (DAT).
(§4) The evaluation for the damage on winter wheat and undesired weeds caused by the tested compositions was carried out using a scale from 0 to 100%, compared to the untreated control plants. Here, 0 means no damage and 100 means complete destruction of the plants.
Description for Capsella bursa-pastoris: as §1, §2, §3, §4
Description for Lamium amplexicaule: as §1, §2, §3, §4
Description for Matricaria inodora: as §1, §2, §3, §4
Description for Raphanus raphanistrum: as §1, §2, §3, §4
Description for Triticum aestivum: as §2
Cinmethylin was used in the solo application as an emulsion concentrate with an active ingredient concentration of 750 g/l.
The mixture of cinmethylin and picolinafen as an emulsifiable concentrate was prepared from cinmethylin as an emulsifiable concentrate (EC) and picolinafen as a water dispersable granule (WG) having an active ingredient concentration of 500 g/l and 50 g/l, respectively.
as §3, §4

For `Cc1ccccc1CO[C@@H]1C[C@@]2(C(C)C)CC[C@]1(C)O2` (racemic) [cinmethylin, (±)-2-exo-(2-methylbenzyloxy)-1-methyl-4-isopropyl-7-oxabicyclo[2.2.1]heptane], in data set [1], the solubility in water is 63 µg/mL (≈ 230 µM). For the same compound, the herbicidal activity in the data set with Alopecurus myosuroides (use rate 500 g ai/ha) is on record as 100%; in the data set with Capsella bursa-pastoris (use rate 500 g ai/ha), 65%; with Raphanus raphanistrum (use rate 500 g ai/ha), 10%; in the data set on Triticum aestivum (use rate 500 g ai/ha), 0%; in the data set on Triticum aestivum (use rate 1000 g ai/ha), 0%; with Matricaria inodora (use rate 500 g ai/ha) it was 62%. In the data set on Lamium amplexicaule (use rate 500 g ai/ha), this compound displayed a herbicidal activity of 53%.
As for `O=C(Nc1ccc(F)cc1)c1cccc(Oc2cccc(C(F)(F)F)c2)n1` [picolinafen (WG), picolinafen], the herbicidal activity with Alopecurus myosuroides (use rate 50 g ai/ha) worked out at 0%; with Capsella bursa-pastoris (use rate 50 g ai/ha), 96%; in the data set with Raphanus raphanistrum (use rate 50 g ai/ha), 98%; with Triticum aestivum (use rate 50 g ai/ha), 0%; in the data set on Triticum aestivum (use rate 100 g ai/ha) it was 0%; with Matricaria inodora (use rate 50 g ai/ha), 69%. The compound also registered a herbicidal activity in the data set on Lamium amplexicaule (use rate 50 g ai/ha) of 94%.

Source of the values: patent US11019816B2, “Composition comprising cinmethylin-containing microparticles and a further herbicide” (BASF Agro B.V., priority 2017, dated 2021).
